Reference: patent publication US7312240B2, “Conformationally constrained paclitaxel analogs and their use as anticancer and anti-Alzheimers agents” (Virginia Tech Intellectual Properties, Inc., priority 2004, dated 2007)

Assays:
PC-3 prostate cell line = test: Cytotoxicity against PC3 prostate cancer cell line; conditions: PC3
[1] = tested on: paclitaxel resistant and epothilone A resistant cell lines; test: Activity against paclitaxel resistant and epothilone A resistant cell lines; format: cell-based
[2] = tested on: A2780 ovarian cancer cell line; test: Cytotoxicity against A2780 ovarian cancer cell line; conditions: A2780, relative to PTX
[3] = tested on: A2780 ovarian cancer cell line; conditions: meta-bridged analogs, earlier work (Org. Lett. 2001, 3, 2461); cited from earlier work

CC(=O)O[C@H]1C(=O)[C@@]2(C)[C@@H]3[C@H](OC(=O)c4ccccc4)[C@]4(O)C[C@H](OC(=O)[C@H](O)[C@@H](NC(=O)c5ccccc5)c5ccccc5CCCC(=O)O[C@]35CO[C@@H]5C[C@@H]2O)C(C)=C1C4(C)C [Compound 16d]
cytotoxicity against PC3 in words, compared with PTX/Taxol (PC-3 prostate cell line): slightly more cytotoxicity than PTX | times better activity than paclitaxel [1]: 100 times | times more potent/active than PTX against A2780 [2]: about 10 times

CC(=O)O[C@H]1C(=O)[C@@]2(C)[C@@H]3[C@H](OC(=O)c4ccccc4)[C@]4(O)C[C@H](OC(=O)[C@H](O)[C@@H](NC(=O)c5ccccc5)c5ccccc5C/C=C\C(=O)O[C@]35CO[C@@H]5C[C@@H]2O)C(C)=C1C4(C)C [Compound 15d]
cytotoxicity against PC3 in words, compared with PTX/Taxol (PC-3 prostate cell line): slightly more cytotoxicity than PTX | times better activity than paclitaxel [1]: 100 times | times more potent/active than PTX against A2780 [2]: at least 20 times

CC(=O)O[C@H]1C(=O)[C@@]2(C)[C@@H]3[C@H](OC(=O)c4ccccc4)[C@]4(O)C[C@H](OC(=O)C(O)C(NC(=O)c5ccccc5)c5cccc(c5)OC/C=C\CCC(=O)O[C@]35CO[C@@H]5C[C@@H]2O)C(C)=C1C4(C)C (stereo partly shown) [Compound 16]
potency as cytotoxins, fold less than Taxol/PTX [3]: less than one-tenth the activity of Taxol
